Experimental data: patent US12180187B2, “1-phenyl-5-azinylpyrazolyl-3-oxyalkyl acids and their use for controlling unwanted plant growth” (BAYER AKTIENGESELLSCHAFT, priority 2019, dated 2024)

Assays:
MATIN [1] = experiment: Post-emergence action against MATIN, 1.28 kg/ha; assay type: in vivo, Tripleurospermum inodorum (Matricaria inodora); conditions: dosage 1280 g/ha, visual rating about 3 weeks after treatment vs untreated controls (100% = plants died)
Experimental: (§1) • a) Seeds of mono- and dicotyledonous weed plants are placed in plastic pots in sandy loam soil (twin sowing with one species each of mono- or dicotyledonous weed plants per pot), covered with soil and cultivated in a greenhouse under controlled growth conditions. 2 to 3 weeks after sowing, the test plants are treated at the one-leaf stage. The compounds of the invention, formulated in the form of wettable powders (WP) or as emulsion concentrates (EC), are applied to the green parts of the plants as aqueous suspension or emulsion with addition of 0.5% additive at a water application rate equivalent to 600 litres per hectare. After the test plants have been kept in the greenhouse under optimum growth conditions for about 3 weeks, the activity of the preparations is rated visually in comparison to untreated controls. For example, 100% activity=the plants have died, 0% activity=like control plants. As shown by the results, compounds of the general formula (I) of the invention, in post-emergence treatment, have very good herbicidal efficacy (90% to 100% herbicidal action) against harmful plants such as Abutilon theophrasti, Digitaria sanguinalis, Echinochloa crus-galli, Matricaria inodora, Poa annua, at an application rate of 1.28 kg of active substance per hectare.

ECHCG [2] = experiment: Pre-emergence action against ECHCG, 1280 g/ha; assay type: in vivo, Echinochloa crus-galli; conditions: visual scoring after about 3 weeks vs untreated controls, 100% = plants have died, 0% = like control plants
Text: (§2) 1. Pre-Emergence Herbicidal Effect and Crop Plant Compatibility a) Seeds of mono- and dicotyledonous weed plants are placed in plastic pots in sandy loam soil (doubly sown with one species each of mono- or dicotyledonous weed plants per pot) and covered with soil. The compounds of the invention, formulated in the form of wettable powders (WP) or as emulsion concentrates (EC), are then applied onto the surface of the covering soil as aqueous suspension or emulsion with addition of 0.5% additive at a water application rate equivalent to 600 litres per hectare. After the treatment, the pots are placed in a greenhouse and kept under good growth conditions for the trial plants. After about 3 weeks, the effect of the preparations is scored visually in comparison with untreated controls as percentages. For example, 100% activity=the plants have died, 0% activity=like control plants. 1. Pre-Emergence Effectiveness Tables 1 to 12 below show the effects of selected compounds of the general formula (I) according to Tables 1 and 2 on various harmful plants and at an application rate corresponding to 1280 g/ha, which were obtained by the experimental procedure mentioned above.

ABUTH = experiment: Post-emergence action against ABUTH, 1.28 kg/ha; assay type: in vivo, Abutilon theophrasti; conditions: dosage 1280 g/ha, visual rating about 3 weeks after treatment vs untreated controls (100% = plants died)
Experimental: as §1

VERPE [3] = experiment: Post-emergence action against VERPE, 1.28 kg/ha; assay type: in vivo, Veronica persica; conditions: dosage 1280 g/ha, visual rating about 3 weeks after treatment vs untreated controls (100% = plants died)
Experimental: as §1

POAAN [4] = experiment: Post-emergence action against POAAN, 1.28 kg/ha; assay type: in vivo, Poa annua; conditions: dosage 1280 g/ha, visual rating about 3 weeks after treatment vs untreated controls
Experimental: as §1

SETVI = experiment: Pre-emergence action against SETVI, 1280 g/ha; assay type: in vivo, Setaria viridis; conditions: visual scoring after about 3 weeks vs untreated controls, 100% = plants have died, 0% = like control plants
Text: as §2

MATIN [5] = experiment: Pre-emergence action against MATIN, 1280 g/ha; assay type: in vivo, Tripleurospermum inodorum (Matricaria inodora); conditions: scored visually after about 3 weeks vs untreated controls (100% = plants have died)
Text: as §2

AMARE [6] = experiment: Pre-emergence action against AMARE, 1280 g/ha; assay type: in vivo, Amaranthus retroflexus; conditions: scored visually after about 3 weeks vs untreated controls (100% = plants have died)
Text: as §2

POAAN [7] = experiment: Pre-emergence action against POAAN, 1280 g/ha; assay type: in vivo, Poa annua; conditions: visual scoring after about 3 weeks vs untreated controls, 100% = plants have died, 0% = like control plants
Text: as §2

AMARE [8] = experiment: Post-emergence action against AMARE, 1.28 kg/ha; assay type: in vivo, Amaranthus retroflexus; conditions: dosage 1280 g/ha, visual rating about 3 weeks after treatment vs untreated controls (100% = plants died)
Experimental: as §1

LOLRI = experiment: Pre-emergence action against LOLRI, 1280 g/ha; assay type: in vivo, Lolium rigidum; conditions: visual scoring after about 3 weeks vs untreated controls, 100% = plants have died, 0% = like control plants
Text: as §2

DIGSA [9] = experiment: Pre-emergence action against DIGSA, 1280 g/ha; assay type: in vivo, Digitaria sanguinalis; conditions: visual scoring after about 3 weeks vs untreated controls, 100% = plants have died, 0% = like control plants
Text: as §2

VERPE [10] = experiment: Pre-emergence action against VERPE, 1280 g/ha; assay type: in vivo, Veronica persica; conditions: scored visually after about 3 weeks vs untreated controls (100% = plants have died)
Text: as §2

STEME [11] = experiment: Pre-emergence action against STEME, 1280 g/ha; assay type: in vivo, Stellaria media; conditions: scored visually after about 3 weeks vs untreated controls (100% = plants have died)
Text: as §2

ECHCG [12] = experiment: Post-emergence action against ECHCG, 1.28 kg/ha; assay type: in vivo, Echinochloa crus-galli; conditions: dosage 1280 g/ha, visual rating about 3 weeks after treatment vs untreated controls
Experimental: as §1

ALOMY [13] = experiment: Post-emergence action against ALOMY, 1.28 kg/ha; assay type: in vivo, Alopecurus myosuroides; conditions: dosage 1280 g/ha, visual rating about 3 weeks after treatment vs untreated controls
Experimental: as §1

VIOTR = experiment: Pre-emergence action at 320 g/ha against VIOTR; assay type: in vivo, Viola tricolor; conditions: dosage 320 g/ha
Text: (§3) b) Seeds of monocotyledonous and dicotyledonous weed plants and crop plants are placed in plastic or organic planting pots and covered with soil. The compounds of the invention, formulated in the form of wettable powders (WP) or as emulsion concentrates (EC), are then applied onto the surface of the covering soil as aqueous suspension or emulsion with addition of 0.5% additive at a water application rate of 600 l/ha (converted). After the treatment, the pots are placed in a greenhouse and kept under good growth conditions for the trial plants. After about 3 weeks, the effect of the preparations is scored visually in comparison with untreated controls as percentages. For example, 100% activity=the plants have died, 0% activity=like control plants. Tables 13 to 26 below show the effects of selected compounds of the general formula (I) on various harmful plants and at an application rate corresponding to 320 g/ha, which were obtained by the experimental procedure mentioned above.

ALOMY [14] = experiment: Pre-emergence action against ALOMY, 1280 g/ha; assay type: in vivo, Alopecurus myosuroides; conditions: visual scoring after about 3 weeks vs untreated controls, 100% = plants have died, 0% = like control plants
Text: as §2

DIGSA [15] = experiment: Post-emergence action against DIGSA, 1.28 kg/ha; assay type: in vivo, Digitaria sanguinalis; conditions: dosage 1280 g/ha, visual rating about 3 weeks after treatment vs untreated controls
Experimental: as §1

POLCO = experiment: Pre-emergence action at 320 g/ha against POLCO; assay type: in vivo, Fallopia convolvulus (Polygonum convolvulus); conditions: visual scoring after about 3 weeks vs untreated controls
Text: as §3

ALOMY [16] = experiment: Pre-emergence action at 320 g/ha against ALOMY; assay type: in vivo, Alopecurus myosuroides; conditions: scored visually after about 3 weeks vs untreated controls (100% = plants have died)
Text: as §3

AMARE [17] = experiment: Pre-emergence action at 320 g/ha against AMARE; assay type: in vivo, Amaranthus retroflexus; conditions: visual scoring after about 3 weeks vs untreated controls
Text: as §3

STEME [18] = experiment: Post-emergence action against STEME, 1.28 kg/ha; assay type: in vivo, Stellaria media; conditions: dosage 1280 g/ha, visual rating about 3 weeks after treatment vs untreated controls (100% = plants died)
Experimental: as §1

Row | SMILES | Post-emergence action against MATIN (MATIN [1]) [%] | Pre-emergence action against ECHCG (ECHCG [2]) [%] | Post-emergence action against ABUTH (ABUTH) [%] | Post-emergence action against VERPE (VERPE [3]) [%] | Post-emergence action against POAAN (POAAN [4]) [%] | Pre-emergence action against SETVI (SETVI) [%] | Pre-emergence action against MATIN (MATIN [5]) [%] | Pre-emergence action against AMARE (AMARE [6]) [%] | Pre-emergence action against POAAN (POAAN [7]) [%] | Post-emergence action against AMARE (AMARE [8]) [%] | Pre-emergence action against LOLRI (LOLRI) [%] | Pre-emergence action against DIGSA (DIGSA [9]) [%] | Pre-emergence action against VERPE (VERPE [10]) [%] | Pre-emergence action against STEME (STEME [11]) [%] | Post-emergence action against ECHCG (ECHCG [12]) [%] | Post-emergence action against ALOMY (ALOMY [13]) [%] | Pre-emergence action against ALOMY (ALOMY [14]) [%] | further results
1 | O=C(O)COc1nn(-c2ccccc2F)c(-c2cnccn2)c1Br [Example I-003] | 90 | 90 | 90 | 90 | 100 | 90 | 90 | 90 | 100 | 100 | 90 | 90 | 90 | 100 | 90 | – | – | –
2 | CCOC(=O)COc1nn(-c2ccccc2F)c(-c2cnccn2)c1Br [Example I-004] | – | 90 | 90 | 100 | – | 100 | 90 | 100 | 100 | 90 | 90 | 90 | 90 | 100 | 90 | 100 | – | –
3 | COC(=O)C1CCCN(C(=O)COc2nn(-c3ccccc3F)c(-c3ccc(F)nc3)c2Br)C1 (stereo not shown) [Example X-018] | – | – | – | – | – | – | – | – | – | – | – | – | – | – | – | – | – | Pre-emergence action against VIOTR in % (VIOTR): 90%
4 | CONC(=O)COc1nn(-c2ccccc2F)c(-c2ccc(F)cn2)c1Br [II-003] | 90 | 100 | 90 | 100 | 100 | 100 | 100 | 100 | 100 | – | 100 | 100 | – | 90 | – | 100 | – | –
5 | CCOC(=O)COc1nn(-c2ccccc2F)c(-c2ccc(F)cn2)c1Br [II-014] | 90 | 100 | 90 | 90 | 90 | 90 | 100 | 90 | 100 | 90 | 100 | 100 | 100 | 90 | – | – | 100 | Post-emergence action against DIGSA (DIGSA [15]): 90%
6 | CCOC(=O)COc1nn(-c2ccccc2F)c(-c2ccc([S+](C)[O-])nc2)c1Br (stereo not shown) [VII-044] | – | – | – | – | – | – | – | – | – | – | – | – | – | – | – | – | – | Pre-emergence action against POLCO in % (POLCO): 100%; Pre-emergence action at 320 g/ha against ALOMY in % (ALOMY [16]): 90%; Pre-emergence action against VIOTR in % (VIOTR): 100%; Pre-emergence action against AMARE in % (AMARE [17]): 90%
7 | CSc1ccc(-c2c(Br)c(OCC(=O)O)nn2-c2ccccc2F)cn1 [VII-047] | – | – | – | – | – | – | – | – | – | – | – | – | – | – | – | – | – | Pre-emergence action against AMARE in % (AMARE [17]): 90%
8 | COC(=O)COc1nn(-c2cc(F)ccc2F)c(-c2ccc(F)nc2)c1C#N [VII-063] | 90 | – | – | 90 | 100 | 100 | 90 | 100 | 100 | 100 | 100 | 100 | 100 | 100 | – | 100 | 100 | Post-emergence action against STEME (STEME [18]): 100%
9 | O=C(COc1nn(-c2ccccc2F)c(-c2ccc(F)nc2)c1Br)OCc1ccco1 [VII-098] | 100 | 100 | 90 | 90 | 100 | 100 | 90 | 100 | 100 | – | 100 | 100 | 100 | 100 | 90 | 100 | 100 | Post-emergence action against DIGSA (DIGSA [15]): 100%
10 | COC(=O)COc1nn(-c2ccccc2F)c(-c2ccc(F)nc2)c1SC [VII-123] | 90 | – | 90 | 90 | 100 | – | 100 | 90 | 100 | 90 | 90 | 100 | 90 | 90 | 100 | 90 | – | –
11 | CS(=O)(=O)NC(=O)COc1nn(-c2ccccc2F)c(-c2ccnc(F)c2)c1Br [VIII-012] | 100 | 100 | – | 90 | 100 | 100 | 100 | 100 | 100 | 100 | 100 | 100 | 100 | – | 100 | 100 | 100 | Post-emergence action against DIGSA (DIGSA [15]): 100%; Post-emergence action against STEME (STEME [18]): 90%
